According to patent publication US6383527B1, “Compositions comprising valerian extracts, isovaleric acid or derivatives thereof with a NSAID” (NPS Pharmaceuticals, Inc., priority 2001, dated 2002):

Key:
[1] = test system: recurrent excessive lower back pain; assay: Case report Example 1: valerian preparation and ibuprofen for recurrent, excessive lower back pain; assay type: in vivo, human; conditions: person; preparation taken by itself
Text: These examples are provided for purposes of illustration and are not intended to be limiting of the invention. A person was complaining of recurrent excessive lower back pain from prior injuries. During a bout of lower back pain, they stated that […] could not sleep or sit comfortably and was in duress from the constant pain. […] It was stated that the ibuprofen would provide a decrease in inflammation and some analgesic therapy whereas the addition of the valerian and hops extract could provide a decrease in the muscle tone and analgesia as well, thereby allowing for relief from the pain. […] Their spouse stated that […] “acted like a new […]” because they were not grimacing and stooped from pain.

[2] = test system: excessive lower back pain; assay: Case report Example 2: valerian preparation and ibuprofen for acute muscle strain from overexertion; assay type: in vivo, human; conditions: person; ibuprofen taken alone
Text: These examples are provided for purposes of illustration and are not intended to be limiting of the invention. A person, complained of excessive lower back pain that interfered with sleeping and the general activities of daily living such as sitting or standing. They had injured their back while shoveling deep snow from their driveway and sidewalk. They had been taking ibuprofen but experiencing little relief. […] They continued to take the combination until their back healed and no longer gave their pain without medication.

[3] = acid- and heat-labile; release two moles of isovaleric acid per mole; cited from earlier work
[4] = clinical; cited from earlier work
[5] = cited from earlier work
CNS = conditions: in vivo; cited from earlier work

Structure (SMILES): CC(C)Cc1ccc(C(C)C(=O)O)cc1 (stereo not drawn) [ibuprofen]
- relief from lower back pain [1]: without any useful sense of relief
- relief from lower back pain [2]: little relief

Structure (SMILES): CC(=O)Nc1ccc(O)cc1 [acetaminophen]
- relief from lower back pain [1]: without any useful sense of relief

Structure (SMILES): CC(=O)OCC1=CO[C@@H](OC(=O)CC(C)C)[C@H]2C1=C[C@H](OC(=O)CC(C)C)[C@]21CO1 [valtrate]
- survival in the stomach following oral administration [3]: do not survive intact

Structure (SMILES): CC(=O)O[C@H]1C[C@@H]2C(COC(=O)CC(C)C)=CO[C@@H](OC(=O)CC(C)C)[C@@H]2[C@@]12CO2 [didrovaltrate]
- survival in the stomach following oral administration [3]: do not survive intact

Structure (SMILES): CC(C)CC(N)=O [isovaleramide]
- anxiolytic properties [4]: clinically useful anxiolytic properties
- acute toxicity in vivo [5]: low acute toxicity

Structure (SMILES): CCN(CC)C(=O)CC(C)C [N,N-Diethyl isovaleramide]
- CNS properties (CNS): CNS stimulant (convulsant) properties

Structure (SMILES): CC(=O)Oc1ccccc1C(=O)O [aspirin]
- relief from lower back pain [1]: without any useful sense of relief
